Laboratory results from US12611409B2, “Combination therapy using a chemokine receptor 2 (CCR2) antagonist and a PD-1/PD-L1 inhibitor” (CHEMOCENTRYX, INC., priority 2017, dated 2026).

Legend:
[1] = test system: M-MDSCs and CD8 T cells in the CT26 tumor microenvironment; assay: Quantitation of tumor-infiltrating cells per gram of CT26 tumor (flow cytometry); type: in vivo, Balb/c mice
Description: CT26 is a Balb/c-derived colon adenocarcinoma that generates tumors when injected subcutaneously into Balb/c mice. Single cells were isolated from established subcutaneous CT26 tumors (28 days after injection) by mincing, digesting the tissue briefly with collagenase-D, and passing the slurry through 100 μm sieves. Cells were stained for flow cytometry and gated on live CD45^+ tumor-infiltrating leukocytes (FIG. 2).
Tumor-infiltrating cytotoxic T cells (Thy1^+/CD8^+) were quantitated by weighing the tumors before dissociation, allowing cells-per-gram of tumor to be calculated.
M-MDSCs were quantitated by weighing the tumors before dissociation, allowing cells-per-gram of tumor to be calculated.
The ratio in control treated mice (veh+iso) was 1:1, meaning one M-MDSC for every CD8 T cell. […] Treatment of Compound 1 alone yielded 10 CD8 T cells for every M-MDSC cell. Treatment with α-PD-1 […].

[2] = Compound 1 plasma levels in the CT26 study; type: in vivo, Balb/c mice; details: oral gavage 30 mg/kg daily; day 3 and day 23 of dosing
Experimental: Six days after subcutaneous CT26 implantation into the flanks of 9 wk female Balb/c mice (2.5×10^5/mouse), the recipients were randomized based on tumor size and treatment was begun. Mice received anti-PD-1 (RPM1-14 from BioXcell, Inc., catalog number BE0146) by IP injection on days 7, 10, 17 and 21 (200 μg/mouse), and received CCR2 antagonist Compound 1 (30 or 60 mg/kg) or vehicle by oral gavage every 24 hours starting day 7.

Structure (SMILES): C[C@H]1CN([C@@H]2CC[C@@](C(=O)N3COc4c(cc(C(F)(F)F)cc4C(F)(F)F)C3)(C3CC3)OC2)CC[C@@H]1c1cccc(C(=O)O)c1 [Compound 1]
- M-MDSCs in the CT26 tumor microenvironment (cells per gram of tumor) ([1]; by day 24): reduces the population of M-MDSCs
- ratio of CD8 T cells to M-MDSCs ([1]; calculated from cell counts of FIG. 10 and FIG. 11, control (veh+iso) 1:1): 10 CD8 T cells for every M-MDSC
- trough plasma levels [2]: at or above those required for full receptor coverage
